Reference: US20230338307A1, “PROPHYLACTIC AGENT, AMELIORATING AGENT, AND THERAPEUTIC AGENT FOR DRY EYE” (TSUBOTA LABORATORY, INC., priority 2020, published 2023)

Legend:
Assay type in all cases: in vivo, mice
[1] = system: dry eye model; test: Fluorescein staining score, 0.2% benzalkonium chloride dry eye model, Comparative Study 2 (Example 5)
Source text: (§1) After acclimating male C57BL6 mice (7 weeks old) to the experimental environment, those with almost uniform weight values and no eye abnormalities were divided into the following groups (n=3 to 4). • 7 weeks old/normal (non-dry eye group) • 7 weeks old/dry eye model+control (solvent eye drop) group • 7 weeks old/dry eye model+0.003% (w/v) apocynin eye drop group • 7 weeks old/dry eye model+0.03% (w/v) apocynin eye drop group • 7 weeks old/dry eye model+3% diquafosol sodium eye drop group • 7 weeks old/dry eye model+0.5% (w/v) hyaluronic acid eye drop group A dry eye model was created by instilling 3 μL of the 0.2% benzalkonium chloride solution into each of both eyes twice a day for 8 days. Then, the control group received PBS alone, and the test group received 0.003% (w/v), 0.03% (w/v) apocynin and 0.5% (w/v) hyaluronic acid in PBS. The 3% diquafosol sodium eye drop was instilled into each of both eyes at 3 μL, twice a day for 9 days. In Example 5, 1, 2, 5, and 9 days after the start of instillation of the comparative test drug, 1 μL of 0.1% sodium fluorescein solution was instilled into each of both eyes. Fluorescein-stained images were observed under a blue filter using a slit lamp (Kowa Co., Ltd., SL-17), and the degree of corneal epithelial damage was scored.

[2] = system: dry eye model; test: Fluorescein staining score, benzalkonium chloride dry eye model, Comparative Study 1 (Example 4)
Method: After acclimating male C57BL6 mice (7 weeks old) to the experimental environment, those with almost uniform weight values and no eye abnormalities were divided into the following groups (n=4). • 7 weeks old/normal (non-dry eye group) • 7 weeks old/dry eye model+control (solvent eye drop) group • 7 weeks old/dry eye model+0.1% (w/v) apocynin eye drop group • 7 weeks old/dry eye model+0.5% (w/v) hyaluronic acid eye drop group A dry eye model was prepared by instilling the benzalkonium chloride solution at 3 μL each eye, twice a day for 8 days. After that, the control group received the 0.5% methylcellulose solution alone, and the test group received 0.1% (w/v) apocynin or 0.5% (w/v) hyaluronic acid suspended in the 0.5% methylcellulose solution twice a day for 15 days at 3 μL for each of both eyes. In Example 4, 1, 3, 6, 8, and 15 days after the start of instillation of the comparative test drug, 1 μL of the 0.1% fluorescein sodium solution was instilled into each of both eyes. Fluorescein-stained images were observed under a blue filter using a slit lamp (Kowa Co., Ltd., SL-17), and the degree of corneal epithelial damage was scored.

[3] = system: meibomian glands; test: Meibomian gland silhouette and area, dry eye model by systemic erlotinib (Example 3); details: 0.003% (w/v) apocynin eye drop, 2 weeks after start of instillation
Method: After acclimating male C57BL6 mice (7 weeks old) to the experimental environment, those with almost uniform body weight values and no eye abnormalities were divided into the following 3 groups (n=4). • 7 weeks old/normal (non-dry eye group) • 7 weeks old/dry eye model+control (solvent eye drop) group • 7 weeks old/dry eye model+apocynin eye drop group The dry eye model was prepared by dissolving erlotinib at a concentration of 5 mg/ml in 0.5% methylcellulose solution and administering it by intraperitoneal injection at a concentration of 50 mg/kg/day daily from the start of the study. The solvent 0.5% methylcellulose solution was similarly administered to the normal non-administration group. After one week of administration of erlotinib, the control group received PBS alone, and the test group received a solution of 0.003% (w/v) apocynin suspended in PBS twice a day at both eyes with 3 μL each. One week after the start of instillation, 1 μL of 0.1% sodium fluorescein solution was instilled into each of both eyes under isoflurane anesthesia, and the BUT test was performed under a blue filter using a slit lamp (Kowa Co., Ltd., SL-17) (FIG. 5). […] In addition, the image analysis software ImageJ was used to quantify the area of the meibomian gland silhouette image of the upper eyelid image (FIG. 7).

[4] = system: dry eye model; test: Fluorescein staining score, dry eye model by 0.2% benzalkonium chloride instillation (Example 2); details: 0.003% (w/v) apocynin in PBS, 3 μL 4 times daily, two days after start; 0.2% benzalkonium chloride model; FIG. 4
Source text: After acclimating male C57BL6 mice ([…]) to the experimental environment, those with almost uniform weight values and no eye abnormalities were divided into the following 3 groups (n=3). • 7 weeks old/normal (non-dry eye group) • 7 weeks old/dry eye model+control (solvent eye drop) group • 7 weeks old/dry eye model+apocynin eye drop group The dry eye model was created by instilling a 0.2% benzalkonium chloride solution based on the method of Lin et al. (Non-patent Document 4). In this model, instillation of the 0.2% benzalkonium chloride solution causes dry eye symptoms such as shortened BUT, decreased tear volume, and corneal epithelial damage after 1 day of administration (Non-patent Document 4). After the benzalkonium chloride solution was instilled twice daily for 2 days, PBS alone was administered to the control group, and for the test group, a solution of apocynin 0.003% (w/v) suspended in PBS was administered to both eyes at 3 μL each, 4 times daily. Two days after the start of apocynin instillation, 1 μL of 0.1% fluorescein sodium solution was instilled into each of both eyes under isoflurane anesthesia, and stained images were taken under a blue filter using a slit lamp (Kowa Co., Ltd., SL-17). The fluorescein staining scores were analyzed (FIG. 4).

[5] = system: dry eye model; test: Schirmer test (tear volume), 0.2% benzalkonium chloride dry eye model, Comparative Study 2 (Example 5); details: 2 days after start, compared to hyaluronic acid and diquafosol sodium groups, FIG. 10
Source text: as §1, with “Two” for “In Example 5, 1, 2, 5, and 9”, “the Schirmer test” for “1 μL of 0.1% sodium fluorescein solution”, “performed to evaluate” for “instilled into each of both eyes. Fluorescein-stained images were observed under a blue filter using a slit lamp (Kowa Co., Ltd., SL-17), and”, “tear volume.” for “degree of corneal epithelial damage was scored.”

For `COc1cc(C(C)=O)ccc1O` [apocynin, 4-hydroxy-3-methoxyacetophenone], the “fluorescein staining score (corneal epithelial damage)” value ([1]; 0.003% apocynin eye drop, 9 days after start, compared to control, hyaluronic acid and diquafosol sodium groups, FIG. 11B) was “significantly improved”, the “fluorescein staining score (corneal epithelial damage)” value ([1]; 0.03% apocynin eye drop, 9 days after start, compared to control, hyaluronic acid and diquafosol sodium groups, FIG. 11B) was “significantly improved” and the “fluorescein staining score (corneal epithelial damage)” value ([1]; two days after start, compared with control, 0.03% apocynin, 0.5% (w/v) hyaluronic acid or 3% diquafosol sodium twice a day, FIG. 11A) was “decreased significantly”. For the same compound, the “fluorescein staining score (corneal damage)” value ([2]; 3 days after start of instillation, compared to control, 0.1% (w/v) apocynin or 0.5% (w/v) hyaluronic acid twice a day, FIG. 9A) was “significantly reduced”, the “fluorescein staining score (corneal damage)” value ([2]; 15 days after start of instillation, 0.1% (w/v) apocynin twice a day, FIG. 9B) was “significant decrease” and the “missing parts of meibomian glands (silhouette image of upper eyelid)” value ([3]; FIG. 7A) was “reduced the missing parts”. For the same compound, the “meibomian gland silhouette area (atrophy of the meibomian glands)” value ([3]; ImageJ, FIG. 7B) was “significantly inhibits atrophy of the meibomian glands”, the “corneal epithelial damage (fluorescein staining score)” value [4] was “significantly improved” and the “tear volume (Schirmer test)” value ([5]; 0.003% apocynin eye drop) was “significantly improved”. The “tear volume (Schirmer test)” value ([5]; 0.03% apocynin eye drop) was “significantly improved”.
